# Results from PMC9610999, “Itraconazole-Induced Increases in Gilteritinib Exposure Are Mediated by CYP3A and OATP1B” (Molecules, 2022).
# Tests used:
# human OATP1B1 (SLCO1B1) = target: T1, human OATP1B1 (SLCO1B1) (Homo sapiens, UniProt Q9Y6L6); assay: Transport inhibition assay: EβG uptake in OATP1B1 overexpressing HEK293 cells; assay type: cell-based; conditions: OATP1B1 overexpressing HEK293 cells vs vector control; radiolabeled EβG; 15 min pre-incubation; read-out: IC50, inhibition of OATP1B1-mediated cellular accumulation of EβG
# T1 construct: expressed in transfected cells; host or cells: HEK293
# T1 sequence (Q9Y6L6 1-691): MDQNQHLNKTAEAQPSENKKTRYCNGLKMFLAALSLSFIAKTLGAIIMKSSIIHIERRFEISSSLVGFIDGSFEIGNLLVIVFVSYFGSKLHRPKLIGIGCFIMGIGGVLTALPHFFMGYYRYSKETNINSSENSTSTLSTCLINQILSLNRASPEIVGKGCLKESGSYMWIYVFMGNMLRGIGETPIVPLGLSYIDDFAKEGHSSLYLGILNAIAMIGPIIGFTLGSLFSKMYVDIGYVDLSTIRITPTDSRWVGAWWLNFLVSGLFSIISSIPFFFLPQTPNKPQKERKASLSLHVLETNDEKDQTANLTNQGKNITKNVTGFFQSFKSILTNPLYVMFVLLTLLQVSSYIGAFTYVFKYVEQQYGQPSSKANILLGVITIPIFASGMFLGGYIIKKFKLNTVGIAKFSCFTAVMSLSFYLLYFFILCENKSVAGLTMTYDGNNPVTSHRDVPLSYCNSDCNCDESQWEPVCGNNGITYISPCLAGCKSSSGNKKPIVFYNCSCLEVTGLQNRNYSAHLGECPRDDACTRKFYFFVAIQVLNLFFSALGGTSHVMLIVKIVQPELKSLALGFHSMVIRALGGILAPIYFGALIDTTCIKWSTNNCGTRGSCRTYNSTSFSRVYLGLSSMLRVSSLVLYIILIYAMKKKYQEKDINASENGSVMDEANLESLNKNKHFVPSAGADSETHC
# Protocol: Human embryonic kidney (HEK293) cells stably transfected with human OATP1B1 (SLCO1B1) cDNA, or an empty control vector were established and cultured as previously described. Cells were maintained in DMEM supplemented with 10% FBS, 50 µg/mL hygromycin B, 15 µg/mL blasticidin, and maintained in a humidified incubator at 37 °C with 5% CO2. Prior to plating, 24-well tissue culture plates (Thermo Fisher Scientific) were coated with poly-d-lysine. Seeding media was prepared using phenol red-free DMEM with 10% FBS with no selection agents. To the seeding media, […] of doxycycline was added to induce expression of OATP1B1.
# OATP1B1 overexpressing cells and vector control cells were plated in 24-well tissue culture plates at a volume of 0.5 mL (containing 2 × 10^6 cells/mL) per well. Plates were returned to an incubator at 37 °C and transport assays were conducted 24 h later. Transport activity was measured using EβG, a prototypical substrate of OATP1B1. Experiments were conducted using phenol red- and serum-free DMEM. Intracellular levels of total radioactivity originating from EβG were assessed by liquid scintillation counting. The resulting counts were normalized to total protein levels as determined by a Pierce protein assay. The influence of gilteritinib, itraconazole, keto-itraconazole, or hydroxy-itraconazole on OATP1B1-mediated transport was assessed following a 15 min pre-incubation at various concentrations of test inhibitors followed by co-incubation of test inhibitors with EβG. Inhibition of transport activity by gilteritinib was determined by comparing the accumulation of EβG in the presence of gilteritinib, itraconazole, keto-itraconazole, or hydroxy-itraconazole to that of EβG in the presence of only the control vehicle, DMSO. The final concentration of DMSO in media was less than 0.2% in all in vitro experiments.
# [1] = tested on: CDCA-24G, an endogenous biomarker of OATP1B transporter function; assay: Plasma CDCA-24G (endogenous biomarker of OATP1B function) in mice treated with itraconazole; assay type: in vivo
# [2] = tested on: OATP1B biomarkers coproporphyrin (CP) I and CPIII; set-up: method as in PMID 34049965, PMID 29777022; conditions: itraconazole 100 mg to human subjects; cited from earlier work
Compound,IC50 (human OATP1B1 (SLCO1B1)),CDCA-24G AUC0–4h ([1]; 100 mg/kg),"CDCA-24G AUC0–4h ([1]; CYP3A(−/−) female mice, itraconazole 100 mg/kg)","CDCA-24G AUC Fold Increase ([1]; CYP3A(−/−) mice, itraconazole 100 mg/kg, vs. CYP3A(−/−) untreated)","CDCA-24G AUC Fold Increase ([1]; CYP3A(−/−) mice, itraconazole 100 mg/kg, vs. WT Alone)","CDCA-24G AUC Fold Increase ([1]; Wild-type FVB mice, itraconazole 100 mg/kg, vs. CYP3A(−/−) + Itraconazole)","CDCA-24G AUC Fold Increase ([1]; Wild-type FVB mice, itraconazole 100 mg/kg, vs. WT untreated)",Effect on circulating levels of coproporphyrin (CP) I and CPIII [2]
CCC(C)n1ncn(-c2ccc(N3CCN(c4ccc(OCC5COC(Cn6cncn6)(c6ccc(Cl)cc6Cl)O5)cc4)CC3)cc2)c1=O (stereo not shown) [Itraconazole],27.3 µM,5.10 (±1.60) ng ∗ h/mL,3.30 (±1.00) ng ∗ h/mL,1 fold,0.9 fold,1.5 fold,1.3 fold,not associated with changes
CC(O)C(C)n1ncn(-c2ccc(N3CCN(c4ccc(OCC5COC(Cn6cncn6)(c6ccc(Cl)cc6Cl)O5)cc4)CC3)cc2)c1=O (stereo not shown) [hydroxy-itraconazole],2.95 µM,–,–,–,–,–,–,–
CC(=O)C(C)n1ncn(-c2ccc(N3CCN(c4ccc(OC[C@H]5CO[C@](Cn6cncn6)(c6ccc(Cl)cc6Cl)O5)cc4)CC3)cc2)c1=O (stereo partly shown) [keto-itraconazole],7.5 µM,–,–,–,–,–,–,–
